According to US20090318342A1, “Compounds” (IMPERIAL INNOVATIONS LIMITED, priority 2005, published 2009):

How the values were obtained:
[1] = target: soluble form of TACE (TACE R651) (Homo sapiens, UniProt P78536); experiment: Enzyme inhibition kinetic study, TACE; format: biochemical; settings: 0.5 nM TACE, pH 9.0, 1 mM NaCl; for Inhibition of TACE activity (in words): FIG. 2B
Protocol: FIG. 2. Inhibition of MMP and TACE by N-TIMP-3 and its mutants. A. Inhibition of MMP-14(CD) by wild-type and mutated N-TIMP-3. Open circles, wild-type N-TIMP-3; closed circles, T2G; and open squares, -1A. B. Comparison of the inhibition of TACE by wild-type N-TIMP-3, N-TIMP-1 and TAPI-2. The inhibitors were incubated with 0.5 nM TACE for 3 hr at room temperature, and the residual enzyme activity was measured with 10 μM Substrate III (R&D Systems). […] Open circles, N-TIMP-3; closed circles, TAPI-2; and open squares, N-TIMP-1. C. Inhibition of TACE (0.5 nM) by wild-type and mutated N-TIMP-3. Open circles, wild-type inhibitor; closed circles, T2G; and open squares, -1A.
Enzyme inhibition kinetic studies—Inhibition kinetic studies for MMPs and TACE were carried out as described previously (19, 27) with modifications. Purified N-TIMP-3 and mutants were dialyzed against 20 mM Tris-HCl (pH 7.0), 50 mM NaCl containing 20% glycerol, centrifuged at 14,000 rpm for 10 min to remove any precipitate, and protein concentration was re-measured before conducting inhibition assays. Since NaCl inhibits the activity of the TACE ectodomain in vitro (28), we adjusted the final concentration of NaCl to 1 mM in all assays with TACE. Equal volumes (10% of total assay volume) of diluted solutions of N-TIMP-3 and mutants were added to TACE assays, resulting in a final pH of 8.8.
where v is the experimentally determined reaction velocity, v0 is the uninhibited activity, E is enzyme concentration, I is inhibitor concentration, K is the apparent inhibition constant (Ki^(app)) and h is the Hill coefficient.
The inhibitory activities of the mutants were also compared with that of wild-type N-TIMP-3 against a soluble form of TACE in which the transmembrane and C-terminal cytoplasmic domains are deleted (TACE R651; (28)). […] The inhibition curve of TACE by wild-type N-TIMP-3 is sigmoid, in striking contrast with the inhibition by TAPI-2 and with the inhibition of MMPs by N-TIMP-3 and N-TIMP-1 (FIGS. 2A, 2B; (31)). Sigmoid inhibition curves were also obtained for TACE with the T2G and -1A mutants of N-TIMP-3 (FIG. 2C).

THP-1 cells = experiment: Inhibition of TNF-α shedding from THP-1 cells (ELISA); format: cell-based, human; settings: 100 ng/ml PMA, 6 h, 50 to 500 nM
Protocol: FIG. 3. Effects of mutations in N-TIMP-3 on inhibition of cellular shedding of TNF-α. THP-1 cells (2.5×10^6/ml) growing in serum-free RPMI-1640 medium were stimulated with 100 ng/ml PMA for 20 min before adding various concentrations of N-TIMP-3 (wild-type and mutants). Cells were allowed to grow for another 6 hr and conditioned media were collected for the ELISA assays.
Inhibition of TNF-α shedding from THP-1 cells—All TIMP solutions were dialyzed against 20 mM Tris-HCl (pH 7.0), 150 mM NaCl and 20% glycerol before use. Human monocyte THP-1 cells cultured in RPMI-1640 medium supplemented with 5% fetal calf serum were harvested, extensively washed and reseeded into serum-free medium at 2.5×10^6 cells/ml. […] The amount of soluble TNF-α released into the medium was measured using sandwich enzyme-linked immunosorbent assay, as described by Engelberts et al. (30) with modifications. The released TNF-α was absorbed to microtiter plates coated with mouse monoclonal anti-human TNF-α antibody BD551220 (1:200 dilution), and the bound TNF-α was detected using biotinylated mouse monoclonal anti-human TNF-α: antibody BD554511 (1:500 dilution) and streptavidin conjugated with horse radish peroxidase, and 3,3′,5,5′-tetramethylbenzidine as peroxidase substrate (KPL, Guildford, UK). The plates were read at 450 nm with an ELX808 plate reader (BIO-TEK Instruments Inc). […]

[2] = test system: aggrecanase activity in IL-1α- and retinoic acid-stimulated cartilage; experiment: Aggrecanase-generated aggrecan fragments in cartilage conditioned media, Western analysis; format: cell-based; settings: 1 μM
Description: Aggrecan fragments released into the conditioned medium are deglycosylated by digestion with chondroitinase ABC and keratanase and the samples are subjected to SDS/PAGE and Western blotting analysis as described by Little et al.. The primary antibodies used to detect aggrecanase-generated and MMP-generated aggrecan fragments are BC-3 and BC-14, respectively. Antigen-antibody complexes are detected by anti-mouse AP-linked donkey antibody and the AP substrate.
Conditioned media from the above experiments were analyzed by monoclonal antibodies that recognize either the aggrecanase-generated aggrecan neoepitope ARGSV or the MMP-generated aggrecan neoepitope FFGVG. In concordance with GAG release, there was an increase in the amount of aggrecanase-generated aggrecan fragments released upon treatment with either stimulus, but no MMP-generated fragments were detected.

[3] = test system: bovine nasal cartilage explants; experiment: IL-1α-stimulated bovine nasal cartilage explants, GAG release; format: cell-based; settings: 3 days
Protocol: (§1) GAG released into the conditioned media is measured in duplicate using a modification of the dimethylmethylene blue (DMMB) assay as described in Farndale et al.. Shark chondroitin sulfate (0-2.62 μg) is used as standard. The % of total GAG released into the medium is calculated as follows: % of total GAG released=(total GAG in the medium)/(total GAG in the medium+total GAG remaining in the cartilage).
Bovine nasal cartilage explants were stimulated with IL-1α in the presence or absence of N-TIMP-1, TIMP-2, or N-TIMP-3 for 3 days.

[4] = test system: porcine articular cartilage; experiment: Retinoic acid-stimulated porcine articular cartilage, GAG release; format: cell-based
Protocol: Porcine articular cartilage from the metacarpophalangeal joints of 3-9 month old pigs is dissected into small shavings approximately 3 mm long and 2-3 mm wide. After dissection, the cartilage is allowed to rest for 24 h at 37° C. under 5% CO2 in DMEM containing penicillin-streptomycin, amphotericin B, and 5% fetal calf serum. The medium is then replaced with fresh media and the cartilage is rested for a further 24-48 h. Each cartilage piece is then placed in one well of a round bottom 96-well plate with 200 μl of serum-free DMEM with or without 10-100 ng/ml IL-1α or 1 μM retinoic acid and various concentrations of each TIMP-3 mutant. After 3 days, all of the conditioned media are harvested and stored at −20° C. until use.
as §1

[5] = test system: porcine articular cartilage; experiment: IL-1α-stimulated porcine articular cartilage degradation, GAG release (DMMB); format: cell-based; settings: IL-1α 10 ng/ml, 3 days
Protocol: FIG. 7. Inhibition of IL-1a stimulated porcine articular cartilage degradation by N-terminal mutants of N-TIMP-3. Porcine articular cartilage pieces were cultured for three days. Cartilage was stimulated with IL-1α (10 ng/ml) with TIMPs at the concentrations indicated. Glycosaminoglycan (GAG) release in the media was measured by dimethyl methylene blue (DMMB).
Porcine articular cartilage from the metacarpophalangeal joints of 3-9 month old pigs is dissected into small shavings approximately 3 mm long and 2-3 mm wide. After dissection, the cartilage is allowed to rest for 24 h at 37° C. under 5% CO2 in DMEM containing penicillin-streptomycin, amphotericin B, and 5% fetal calf serum. The medium is then replaced with fresh media and the cartilage is rested for a further 24-48 h. […]
as §1, with “Shark chondroitin sulfate (0-2.62 μg) is used as standard.” left out
Porcine articular cartilage pieces were cultured for 3 days. […] Glycosaminoglycan (GAG) release in the media was measured by dimethyl methylene blue (DMMB).

Chain of soluble form of TACE (TACE R651) (P78536 215-651): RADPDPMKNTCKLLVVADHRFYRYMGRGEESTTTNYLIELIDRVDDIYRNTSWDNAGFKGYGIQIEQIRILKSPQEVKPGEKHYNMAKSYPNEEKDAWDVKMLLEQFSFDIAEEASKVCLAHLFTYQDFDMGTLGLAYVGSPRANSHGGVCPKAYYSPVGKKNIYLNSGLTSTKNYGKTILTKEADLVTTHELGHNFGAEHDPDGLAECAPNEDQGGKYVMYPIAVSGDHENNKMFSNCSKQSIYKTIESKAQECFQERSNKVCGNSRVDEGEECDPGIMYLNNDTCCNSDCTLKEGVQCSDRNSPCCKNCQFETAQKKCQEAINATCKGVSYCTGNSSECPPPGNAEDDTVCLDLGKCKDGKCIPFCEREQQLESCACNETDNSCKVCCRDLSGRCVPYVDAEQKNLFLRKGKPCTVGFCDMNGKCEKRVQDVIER

Molecule	Inhibition of TACE activity (in words) [1]	h (Hill coefficient) for TACE inhibition ([1]; Table II, fit with equation 3)	Ki ([1]; Table II, fit with equation 3, read-out: Ki(app) TACE) [nM]	Inhibition of PMA-stimulated release of TNF-α (THP-1 cells)	Release of aggrecanase-generated aggrecan fragments [2]	Inhibition of IL-1α-stimulated GAG release [3]	Inhibition of retinoic acid-stimulated GAG release [4]	Inhibition of IL-1α stimulated cartilage degradation (GAG release) [5]
CC(C)CC(CC(=O)NO)C(=O)NC(C(=O)NC(C)C(=O)NCCN)C(C)(C)C (stereo not drawn) [TAPI-2, HONHCOCH2CH(CH2CH(CH3)2)—CO-t-Butyl-Gly-Ala-NHCH2CH2NH2, reference compound]	effectively inhibited	1	4.28 ± 0.001	–	–	–	–	–
N-TIMP-1: N-terminal inhibitory domain of TIMP-1, expressed in E. coli and folded in vitro [reference compound]	minimal inhibitory activity	–	–	no effect	not effective	not effective even at the concentration of 1 μM	did not inhibit	–
TIMP-1: tissue inhibitor of metalloproteinases-1 [reference compound]	–	–	–	–	–	–	–	did not
